Structures can show the parent of a compound that is named as a salt.

The values below come from article PMC8876625 (Pharmaceuticals, 2022).

The nature of data set [1]: Fluidic permeation study (QuasiVivo QV600) with 16HBE cell barrier. It counts as in vitro ADME. Particulars: human; fluidic cell experiment, 200 µL/min; static P12 multiplied by factor F; read-out: P16, apparent permeability between the apical and basolateral chambers in the fluidic system (converted). Here is the method:
Fluidic permeation studies were performed in the MCmB QuasiVivo® […]), which was assembled according to the manufacturer's instructions. An apical and basolateral flow with a flow rate of 200 μL/min was used (Figure 7b). […] The apical circuit consisted of the apical reservoir bottle, the apical part of the pulmonary chamber, the pump, a three-way cock (B.Braun 4095111; dosing/sampling port; in order of medium flow), and connecting tubes. The basolateral circuit comprised the basolateral reservoir bottle, the basolateral part of the pulmonary chamber, a second chamber allowing the integration of additional cell tissues, the pump, the basolateral sampling port (in order of medium flow), and connecting tubes (Figure 8). Different tubing ([…]-2 Tubing set; […] VWR 228-1066, Radnor, PA, USA) was used to establish the optimal connection between the reservoir bottles, cell chambers, pump, and sampling ports. For the in vitro cell permeation studies, 4.3 × 10^4 16HBE cells were seeded in a cell culture insert with a pore size of 0.4 μm and a growth area of 0.6 cm^2 (PIHP 012 50, Merck Millipore) and cultivated at 37 °C for five days. […] After the static and fluidic permeation studies, the model substances in the apical and basolateral CCM were quantified via HPLC measurements as described in Elberskirch et al.. […]

For data set [2] the following is noted: cited from earlier work.
Data set [3] is described as follows: Static permeation study without lung cells (control, porous membrane only). In kind it is in vitro ADME. Particulars: not told, control without lung cell barrier (porous membrane 0.4 µm, 0.6 cm^2), 100 µM apical, model parameter estimate, read-out: P12, apparent permeability from the apical to the basolateral compartment and vice versa (converted). The method, then:
The cells were cultivated in a 24-well plate (662160, Greiner bio-one, Frickenhausen, Germany) at 37 °C for five days under a physiological pH in the range of 7.0-7.4 with one CCM exchange after two days. […] The basolateral compartment was filled with fresh CCM. After model substance exposure, total apical, and basolateral CCM were collected each in a 1.5 mL tube (Kisker Biotech GmbH & Co. […] For each time point, a separate cell culture insert was used. Samples were then stored at 4 °C until further analysis via HPLC. […] After the static and fluidic permeation studies, the model substances in the apical and basolateral CCM were quantified via HPLC measurements as described in Elberskirch et al.. […] Separation was performed using a Poroshell 120 EC-C18 column (2.1 × 100 mm, 2.7 μm; 695775-902, Agilent Technologies) connected to a guard column (Poroshell 120 EC-C18, 2.1 × 5 mm, 2.7 μm, Agilent Technologies). The mobile phase consisted of three running agents: water (solvent A; sterile filtered 0.2 μm pore), acetonitrile (Solvent B; J.T. Baker), and 0.1% trifluoroacetic acid (TFA) in water (Solvent C; Fisher Scientific). The flow rate was set to 0.4 mL/min with 5 μL of the sample injected. […] For detection, a diode array detector (DAD) was used at a wavelength of 275 nm. […]

A short description of data set [4]: Static permeation study with 16HBE cell monolayer on porous membrane. In kind it is in vitro ADME, human. The conditions noted are these: human; static, with 16HBE lung cell barrier, 100 µM apical, 72 h, model parameter estimate; read-out: P12, apparent permeability from the apical to the basolateral compartment and vice versa (converted). The method, then: (§1) The bronchial cell line 16HBE was cultivated in Dulbecco's modified Eagle medium (DMEM/F12 with L-glutamine and HEPES; Gibco 11039-021, Thermo Fisher Scientific, Waltham, MA, USA), supplemented with 10% fetal bovine serum (FBS, […][…], Sigma Aldrich, St. Louis, MO, USA), 100 U/mL penicillin, and 100 μg/mL streptomycin (Gibco 15140-122, Thermo Fisher Scientific). The cells were cultivated in a humidified atmosphere at 37 °C and 5% CO2. The bronchial cell line 16HBE was obtained from Dr. […] (Cardiovascular Research Institute, University of California). […] The cells were cultivated in a 24-well plate (662160, Greiner bio-one, Frickenhausen, Germany) at 37 °C for five days under a physiological pH in the range of 7.0-7.4 with one CCM exchange after two days. […] The basolateral compartment was filled with fresh CCM. After model substance exposure, total apical, and basolateral CCM were collected each in a 1.5 mL tube ([…] Biotech GmbH & Co. […] For each time point, a separate cell culture insert was used. Samples were then stored at 4 °C until further analysis via HPLC. After the static and fluidic permeation studies, the model substances in the apical and basolateral CCM were quantified via HPLC measurements as described in […] et al.. […] The mobile phase consisted of three running agents: water (solvent A; sterile filtered 0.2 μm pore), acetonitrile (Solvent B; J.T. Baker), and 0.1% trifluoroacetic acid (TFA) in water (Solvent C; Fisher Scientific). The flow rate was set to 0.4 mL/min with 5 μL of the sample injected. […] For detection, a diode array detector (DAD) was used at a wavelength of 275 nm. To model the static in vitro permeation experiments (control and cell experiments), a bidirectional single-barrier model was implemented as a two-compartment ODE system. […] Thereby, […],i reflects the compound permeability through all present permeation barriers in the respective experimental setup, such as unstirred water layers, the porous filter membrane, and cell monolayer (apparent permeability). […] During parameter estimation in the static permeation study, permeability parameters ([…],i) were estimated by fitting the model-simulated concentrations to the observed experimental data via first-order conditional estimation method with interaction (FOCE-I) in […]®, using a combined proportional and additive residual error model (Equation (6)).

The next data set deals with 16HBE cells. The data set is described as above. It counts as in vitro ADME, human. Particulars: for potential metabolism in the pulmonary epithelial cells: static cellular experiments, from mass balance; for active transport in 16HBE cells: static cellular study, equilibrium with similar apical and basolateral concentrations. The method, then: as §1
For data set [5], the system named is human bronchial epithelial cell line Calu-3. The arrangement: method as in earlier work. The conditions noted are these: Calu-3 cells; ref 5 (Mathias et al.); cited from earlier work.

In the case of `O=C(O)Cc1ccccc1Nc1c(Cl)cccc1Cl` [diclofenac, diclofenac sodium salt], the Papp at 72 h, 100 µM in data set [1] was 3.92 ×10⁻⁶ cm/s. In data set [2], the logP is ~ 4. Also, the Papp A→B at 72 h, 100 µM is 41.8 ×10⁻⁶ cm/s in data set [3] and 23 ×10⁻⁶ cm/s in data set [4]. Besides, the “potential metabolism in the pulmonary epithelial cells” value with 16HBE cells is “negligible”. Also, in the data set with 16HBE cells, the “active transport in 16HBE cells” value is on record as “neither caffeine nor diclofenac were subject to active transport”.

For `Cn1c(=O)c2c(ncn2C)n(C)c1=O` [caffeine], the Papp at 72 h, 100 µM in data set [1] is 14.9 ×10⁻⁶ cm/s. The “apparent permeability (published value)” value in data set [5] is 21.8 ×10⁻⁶ cm/s. Moreover, the values for the Papp A→B at 72 h, 100 µM in data set [3] and in data set [4] were 54.5 ×10⁻⁶ cm/s and 43.7 ×10⁻⁶ cm/s, respectively. The “potential metabolism in the pulmonary epithelial cells” value in the data set on 16HBE cells is on record as “negligible”. Further, the “active transport in 16HBE cells” value with 16HBE cells is on record as “neither caffeine nor diclofenac were subject to active transport”.
